SMILES strings stand for the structures.

We go through one compound from US20130210786A1, “TREATMENT OF L-DOPA, DOPAMINE AGONIST AND/OR DOPAMINE ENHANCER INDUCED DISORDERS” (priority 2010, published 2013).

Data set [1] deals with MPTP-lesioned macaques. Briefly: L-DOPA induced dyskinesia (LID) in MPTP-lesioned macaques, monkey dyskinesia rating scale. The class given is in vivo, Macaca fascicularis. The following applies: group 1 (L-DOPA+vehicle); challenge with L-DOPA 12, 20, 30 or 40 mg/kg p.o. As to the method:
Ten female cynomolgus monkeys (macaques) (Macaca fascicularis, 3.0-4.5 kg, 4-6 years old) were acclimatised to the experimental setting and procedures for 3 months and baseline behaviour was assessed in all animals. The macaques received MPTP (0.2 mg/kg/day, s.c.) until moderate-marked, stable, parkinsonian symptoms developed.
Following stabilisation of parkinsonian disability, the macaques were administered L-DOPA (Madopar, 20 mg/kg b.i.d., p.o.) for 19 weeks before being administered L-DOPA+vehicle (hydroxypropylmethylcellulose, HPMC, 0.5% w/v containing Tween 80, 0.2% v/v, group 1, n=5) or L-DOPA+smilagenin (20 mg/kg/day, p.o., group 2, n=5) for a further 18 weeks. Smilagenin was then washed out for 10 weeks and all the macaques received only L-DOPA twice daily over this 10 week period.
Following the 10 week washout, the macaques were challenged with L-DOPA (6, 12, 20, 30 or 40 mg/kg, p.o.) or vehicle and the level of dyskinesia over the subsequent 6 h period was assessed by a neurologist blinded to treatment using a monkey dyskinesia rating scale. […] Each macaque received a challenge once every 3 days and received every challenge (vehicle and L-DOPA, 6, 12, 20, 30 or 40 mg/kg) in a randomised order over the course of the experiment. On the days between challenges, the macaques received L-DOPA (20 mg/kg, b.i.d., p.o.) as normal.
The MPTP-lesioned and L-DOPA treated macaques used in this experiment provide an accepted model for L-DOPA-induced dyskinesia.

Data set [2] deals with MPTP-lesioned macaques. Briefly: On-time (time without bradykinesia) in MPTP-lesioned macaques after L-DOPA challenge. Format: in vivo, Macaca fascicularis. The conditions noted are these: both groups; L-DOPA challenge 6-40 mg/kg p.o.
Protocol: Analysis was performed using a two-way ANOVA with group and L-DOPA dose as factors.

`N[C@@H](Cc1ccc(O)c(O)c1)C(=O)O` [L-DOPA, L-3,4-dihydroxyphenylalanine]: the “Dyskinesia following challenge with L-DOPA” value in the data set with MPTP-lesioned macaques [1] is on record as “dose-dependent dyskinesia up to the 30 mg/kg dose”. Further, in the data set with MPTP-lesioned macaques [2], the “Effect of L-DOPA on amount of on-time” value is “increased the amount of on-time”.
